Test results as given in patent publication US7683062B2, “Crystalline form” (sanofi-aventis U.S. LLC, priority 2005, dated 2010).

Columns and labels:
[1] = system: animal models of rheumatoid arthritis; experiment: Animal models of rheumatoid arthritis; type: in vivo; conditions: by modulating the immune response
[2] = biological target: peripheral-type benzodiazepine receptors (Homo sapiens, UniProt P30536); conditions: cited from earlier work
[3] = Stability testing of polymorphic form (FTIR); type: physicochemical
Description: Fourier Transform IR spectra were obtained with a Nicolet 750 Magna brand system. The drug substance was ground with dry potassium bromide (KBr) at a concentration of 1 mg drug substance/200 mg KBr and compressed into a disk (200 mg) at 10,000 lbs for analysis.
Samples were analyzed at 2 months. The chamber humidity was controlled via a saturated sodium chloride aqueous solution.

[4] = Preliminary absorption studies with standard formulations; type: in vivo

peripheral-type benzodiazepine receptors, sequence (P30536 whole entry): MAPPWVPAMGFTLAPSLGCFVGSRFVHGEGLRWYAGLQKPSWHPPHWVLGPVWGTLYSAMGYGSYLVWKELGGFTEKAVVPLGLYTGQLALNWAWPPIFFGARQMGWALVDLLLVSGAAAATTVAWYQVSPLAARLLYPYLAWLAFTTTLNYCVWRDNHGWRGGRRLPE

CN(C)C(=O)Cc1nn(-c2ccccc2)c(=O)c2c1c1ccc(Cl)cc1n2C [7-Chloro-N,N,5-trimethyl-4-oxo-3-phenyl-3,5-dihydro-4H-pyridazino[4,5-b]indole-1-acetamide]
pharmacological activity in animal models of rheumatoid arthritis [1]: has shown pharmacological activity
affinity for the peripheral-type benzodiazepine receptors [2]: high affinity

CN(C)C(=O)Cc1nn(-c2ccccc2)c(=O)c2c1c1ccc(Cl)cc1n2C [Form II, 7-chloro-N,N,5-trimethyl-4-oxo-3-phenyl-3,5-dihydro-4H-pyridazino[4,5-b]indole-1-acetamide]
physical stability (conversion to Form I by FTIR) ([3]; 50° C./75% relative humidity, open glass vials, two months, FIG. 9): no changes indicative of conversion to Form I
physical stability (conversion into other form) ([3]; normal storage conditions (room temperature)): does not convert into any other form

CN(C)C(=O)Cc1nn(-c2ccccc2)c(=O)c2c1c1ccc(Cl)cc1n2C [Form I, 7-chloro-N,N,5-trimethyl-4-oxo-3-phenyl-3,5-dihydro-4H-pyridazino[4,5-b]indole-1-acetamide]
absorption of the drug [4]: limited absorption
